In patent publication US11072632B2, “Inhibitors of 17β-HSD1, 17β-HSD3 and 17β-HSD10” (UNIVERSITÉ LAVAL, priority 2011, dated 2021):

How the values were obtained:
17β-HSD3 [1] = biological target: T1, 17β-HSD3 (Homo sapiens, UniProt P37058); assay: Inhibition of 17β-HSD3 in homogenated HEK-293 cells; type: biochemical; conditions: for Homo (%) (0.01 μM) / Homo (%) (0.1 μM): Table 3; for inhibition at 0.01 µM: read-out: Homo (%) (0.01 μM), Table 4; for inhibition at 0.1 µM: read-out: Homo (%) (0.1 μM), Table 4; for inhibition at 1 µM: read-out: Homo (%) (1.0 μM), Table 4
T1 construct: expressed in transfected cells; host or cells: HEK-293 (homogenate)
T1 sequence (P37058 1-310): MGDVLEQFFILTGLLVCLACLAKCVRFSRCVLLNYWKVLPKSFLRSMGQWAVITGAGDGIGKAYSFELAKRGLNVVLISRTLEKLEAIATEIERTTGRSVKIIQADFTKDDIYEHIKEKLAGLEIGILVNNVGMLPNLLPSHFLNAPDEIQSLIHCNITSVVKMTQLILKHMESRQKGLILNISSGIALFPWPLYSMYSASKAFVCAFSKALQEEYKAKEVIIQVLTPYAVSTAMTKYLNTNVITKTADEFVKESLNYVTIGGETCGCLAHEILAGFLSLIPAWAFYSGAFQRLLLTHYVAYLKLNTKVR

17β-HSD3 [2] = biological target: T1, 17β-HSD3; assay: Inhibition of 17β-HSD3 in intact HEK-293 cells; type: cell-based; conditions: 0.1 μM; for Intact cells (%) (0.1 μM): Table 3; for inhibition at 0.1 µM: HEK293, 1 h, read-out: Intact cells (%) (0.1 μM), Table 4; for Intact cells (%) (0.1 μM), tested in another experiment: Table 4, footnote b

SMILES	Homo (%) (0.01 μM) (17β-HSD3 [1])	Homo (%) (0.1 μM) (17β-HSD3 [1])	Intact cells (%) (0.1 μM) (17β-HSD3 [2])	inhibition at 0.01 µM (17β-HSD3 [1])	inhibition at 0.1 µM (17β-HSD3 [1])	inhibition at 1 µM (17β-HSD3 [1])	inhibition at 0.1 µM (17β-HSD3 [2])	Intact cells (%) (0.1 μM), tested in another experiment (17β-HSD3 [2])
CC1CN(C(=O)c2ccccc2)C(C)CN1C[C@@]1(O)CC[C@@]2(C)[C@@H](CC[C@@H]3[C@@H]2CC[C@]2(C)C(=O)CC[C@@H]32)C1 (stereo partly drawn) [Compound 13a, (3α,5α)-3-{[(2ξ,5ξ)-2,5-dimethyl-4-(phenylcarbonyl)piperazin-1-yl]methyl}-3-hydroxyandrostan-17-one]	24%	87%	78%	–	–	–	–	–
CC1CN(C(=O)C2CCCCC2)C(C)CN1C[C@@]1(O)CC[C@@]2(C)[C@@H](CC[C@@H]3[C@@H]2CC[C@]2(C)C(=O)CC[C@@H]32)C1 (stereo partly drawn) [Compound 13b, (3α,5α)-3-{[(2ξ,5ξ)-4-(cyclohexylcarbonyl)-2,5-dimethylpiperazin-1-yl]methyl}-3-hydroxyandrostan-17-one]	24%	90%	77%	–	–	–	–	–
CC1CN(C(=O)c2cccc(C(F)(F)F)c2)C(C)CN1CC1(O)CCC2(C)C(CCC3C4CCC(=O)C4(C)CCC32)C1 (stereo not drawn) [Compound 13c, (3α,5α)-3-{[(2ξ,5ξ)-2,5-dimethyl-4-{[3-(trifluoromethyl)phenyl]carbonyl}piperazin-1-yl]methyl}-3-hydroxyandrostan-17-one]	28%	89%	70%	–	–	–	–	–
Cc1ccc(CN2C[C@]3(CC[C@@]4(C)[C@@H](CC[C@@H]5[C@@H]4CC[C@]4(C)C(=O)CC[C@@H]54)C3)OC2=O)cc1 [Compound 17b, (3R,5S,8R,9S,10S,13S,14S)-10,13-dimethyl-3′-(4-methylbenzyl)tetrahydrodecahydro-2′H-spiro[cyclopenta[α]phenanthrene-3,5′-[1,3]oxazolidine]-2′,17(2H)-dione]	–	–	–	17%	81%	93%	38%	–
COc1ccc(CN2C[C@]3(CC[C@@]4(C)[C@@H](CC[C@@H]5[C@@H]4CC[C@]4(C)C(=O)CC[C@@H]54)C3)OC2=O)cc1 [Compound 17c, (3R,5S,8R,9S,10S,13S,14S)-3′-(4-methoxybenzyl)-10,13-dimethyltetradecahydro-2′H-spiro[cyclopenta[α]phenanthrene-3,5′-[1,3]oxazolidine]-2′,17(2H)-dione]	–	–	–	5%	84%	93%	43%	–
C[C@]12CC[C@@]3(C[C@@H]1CC[C@@H]1[C@@H]2CC[C@]2(C)C(=O)CC[C@@H]12)CN(Cc1ccc(C(F)(F)F)cc1)C(=O)O3 [Compound 17d, (3R,5S,8R,9S,10S,13S,14S)-10,13-dimethyl-3′-[4-(trifluoromethyl)benzyl]tetradecahydro-2′H-spiro[cyclopenta[α]phenanthrene-3,5′-[1,3]oxazolidine]-2′,17(2H)-dione]	–	–	–	25%	80%	–	43%	–
C[C@]12CC[C@@]3(C[C@@H]1CC[C@@H]1[C@@H]2CC[C@]2(C)C(=O)CC[C@@H]12)CN(Cc1ccc(C(F)(F)F)nc1)C(=O)O3 [Compound 17e]	–	–	–	3%	65%	–	36%	–
C[C@]12CC[C@@]3(C[C@@H]1CC[C@@H]1[C@@H]2CC[C@]2(C)C(=O)CC[C@@H]12)CN(Cc1ccccc1C(F)(F)F)C(=O)O3 [Compound 17f, (3R,5S,8R,9S,10S,13S,14S)-10,13-dimethyl-3′-[2-(trifluoromethyl)benzyl]tetradecahydro-2′H-spiro[cyclopenta[α]phenanthrene-3,5′-[1,3]oxazolidine]-2′,17(2H)-dione]	–	–	–	17%	81%	–	35%	–
C[C@]12CC[C@@]3(C[C@@H]1CC[C@@H]1[C@@H]2CC[C@]2(C)C(=O)CC[C@@H]12)CN(Cc1cccc(C(F)(F)F)c1)C(=O)O3 [Compound 17g, (3R,5S,8R,9S,10S,13S,14S)-10,13-dimethyl-3′-[3-(trifluoromethyl)benzyl]tetradecahydro-2′H-spiro[cyclopenta[α]phenanthrene-3,5′-[1,3]oxazolidine]-2′,17(2H)-dione]	–	–	–	16%	80%	–	36%	–
C[C@]12CC[C@@]3(C[C@@H]1CC[C@@H]1[C@@H]2CC[C@]2(C)C(=O)CC[C@@H]12)CN(Cc1cc(C(F)(F)F)cc(C(F)(F)F)c1)C(=O)O3 [Compound 17h, (3R,5S,8R,9S,10S,13S,14)-3′-[3,5-bis(trifluoromethyl)benzyl]-10,13-dimethyletradecahydro-2′H-spiro[cyclopenta[α]phenanthrene-3,5′-[1,3]oxazolidine]-2′,17(2H)-dione]	–	–	–	12%	66%	–	35%	–
C[C@]12CC[C@@]3(C[C@@H]1CC[C@@H]1[C@@H]2CC[C@]2(C)C(=O)CC[C@@H]12)CN(C1CCCCC1)C(=O)O3 [Compound 17i, (3R,5S,8R,9S,10S,13S,14S)-3′-cyclohexyl-10,13-dimethyltetradecahydro-2′H-spiro[cyclopenta[α]phenanthrene-3,5′-[1,3]oxazolidine]-2′,17(2H)-dione]	–	–	–	13%	75%	78%	29%	–
Cc1ccc(CN2C[C@]3(CC[C@@]4(C)[C@@H](CC[C@@H]5[C@@H]4CC[C@]4(C)C(=O)C(C)(C)C[C@@H]54)C3)OC2=O)cc1 [Compound 18, (3R,5S,8R,9S,10S,13S,14S)-10,13,16,16-tetramethyl-3′-(4-methylbenzyl)tetrahydrodecahydro-2′H-spiro[cyclopenta[α]phenanthrene-3,5′-[1,3]oxazolidine]-2′,17(2H)-dione]	–	–	–	2%	22%	74%	18%	–
C[C@]12CC[C@@]3(C[C@@H]1CC[C@@H]1[C@@H]2CC[C@]2(C)C(=O)CC[C@@H]12)CN(CCBr)C(=O)O3 [Compound 22, (3R,5S,8R,9S,10S,13S,14S)-3′-(2-bromoethyl)-10,13-dimethyltetrahydrodecahydro-2′H-spiro[cyclopenta[α]phenanthrene-3,5′-[1,3]oxazolidine]-2′,17(2H)-dione]	–	–	–	17%	–	93%	31%	–
Cc1cccc(OCCN2C[C@]3(CC[C@@]4(C)[C@@H](CC[C@@H]5[C@@H]4CC[C@]4(C)C(=O)CC[C@@H]54)C3)OC2=O)c1 [Compound 23a, (3R,5S,8R,9S,10S,13S,14S)-10,13-dimethyl-3′-[2-(3-methylphenoxy)ethyl]tetrahydrodecahydro-2′H-spiro[cyclopenta[α]phenanthrene-3,5′-[1,3]oxazolidine]-2′,17(2H)-dione]	–	–	–	13%	–	95%	40%	–
Cc1cccc(S(=O)(=O)CCN2C[C@]3(CC[C@@]4(C)[C@@H](CC[C@@H]5[C@@H]4CC[C@]4(C)C(=O)CC[C@@H]54)C3)OC2=O)c1 [Compound 23b]	–	–	–	0%	52%	93%	5%	–
C[C@]12CC[C@@]3(C[C@@H]1CC[C@@H]1[C@@H]2CC[C@]2(C)C(=O)CC[C@@H]12)CN(CCN1CCCCC1)C(=O)O3 [Compound 23c, (3R,5S,8R,9S,10S,13S,14S)-10,13-dimethyl-3′-[2-(piperidin-1-yl)ethyl]tetrahydrodecahydro-2′H-spiro[cyclopenta[α]phenanthrene-3,5′-[1,3]oxazolidine]-2′,17(2H)-dione]	–	–	–	0%	0%	21%	–	10^b %
CCN(CCN1C[C@]2(CC[C@@]3(C)[C@@H](CC[C@@H]4[C@@H]3CC[C@]3(C)C(=O)CC[C@@H]43)C2)OC1=O)C1CCCCC1 [Compound 23e, (3R,5S,8R,9S,10S,13S,14S)-3′-{2-[cyclohexyl(ethyl)amino]ethyl}-10,13-dimethyltetradecahydro-2′H-spiro[cyclopenta[α]phenanthrene-3,5′-[1,3]oxazolidine]-2′,17(2H)-dione]	–	–	–	2%	21%	72%	2%	–
CCCN(CCC)CCN1C[C@]2(CC[C@@]3(C)[C@@H](CC[C@@H]4[C@@H]3CC[C@]3(C)C(=O)CC[C@@H]43)C2)OC1=O [Compound 23f, (3R,5S,8R,9S,10S,13S,14S)-3′-[2-(dipropylamino)ethyl]-10,13-dimethyltetradecahydro-2′H-spiro[cyclopenta[α]phenanthrene-3,5′-[1,3]oxazolidine]-2′,17(2H)-dione]	–	–	–	0%	10%	62%	–	8^b %
CCCN(CCN1C[C@]2(CC[C@@]3(C)[C@@H](CC[C@@H]4[C@@H]3CC[C@]3(C)C(=O)CC[C@@H]43)C2)OC1=O)C(=O)CC [Compound 23g, N-{(3R,5S,8R,9S,10S,13S,14S)-10,13-dimethyl-2′,17-dioxohexadecahydro-3′H-spiro[cyclopenta[α]phenanthrene-3,5′-[1,3]oxazolidine-3′-yl]ethyl}-N-propylpropanamide]	–	–	–	0%	35%	80%	25%	–
